Results: patent US20230165970A1, “COMPOSITIONS AND METHODS FOR THE TREATMENT OF BACTERIAL INFECTIONS” (priority 2017, published 2023)
Values after ≈ are worked out from the molar mass of the structure shown. *1 amine or outer side, *2 acyl side, *3 side chain or, on linkers, in order; H or OH if unused. Where a SMILES comes first, the peptide text is derived from it. Bridges are numbered along the chain shown (N, C = ends). Roman numbers before positions name the chains, in order. [ ]: non-standard residue; d: D form. The star is where a group is joined. X4 = C#CCOCCOCCOCCOCCNC(=O)CN(CC(=O)[*:1])CC(=O)[*:2]; Propargyl(OCH2CH2)4CO = C#CCOCCOCCOCCOCCC(=O)*; X1 = CCCCCC[C@@H](O)[C@H](N[*:1])C(=O)[*:2]; dCha = N[C@H](CC1CCCCC1)C(=O)O; Aoc(2) = CCCCCC[C@H](N)C(=O)O; Nle = CCCC[C@H](N)C(=O)O; Dab = NCC[C@H](N)C(=O)O; azaGly = NNC(=O)O

Tests used:
Kp 6951 (COL^R) = type: cell-based, Klebsiella pneumoniae
Experimental: (§1) Briefly, stock solutions of all antibacterial agents were prepared fresh in appropriate solvents (i.e. PBS, pH 7.4, DMSO, DI, etc.). Stock concentrations for drug conjugates were made at 12.5× the highest final assay concentration. All were serially diluted 2-fold, 8 or 12 times in a 96-well PCR plate (VWR cat. no. 83007-374). Bacterial cell suspensions generated from Mueller-Hinton agar (MHA) plate cultures were prepared in 0.85% saline and adjusted to ˜0.1 OD600 nm. […] For the conjugates, 92 μL of each cell suspension in RPMI B were added in the same 96-well plate assay format. […] Compounds were tested against a 14-strain panel comprised of E. coli (Ec), A. baumannii (Ab), P. aeruginosa (Pa), and K. pneumoniae (Kp) that were obtained from ATCC (Ec 25922, Ec 2489, Ab 19606, Pa 27853, Pa PAO1, Kp 43816, Kp 10031), Centers for Disease Control and Prevention (Ec AR0349), BEI Resources (Ab AB5075), Micromyx LLC (Ab 8990, Kp 6951), and Belgian Coordinated Collections of Microorganisms (Pa LES431) or generated in-house (Ec 25922 64X-1). […] E. coli strain ATCC 25922 and P. aeruginosa strain LES431 were run in the presence and absence of 50% heat-inactivated fetal bovine serum (FBS; Sigma, cat. no. F4135-100 mL). Plates were mixed by shaking then incubated at 35° C. overnight (16-20 h).

Kp 43816 = type: cell-based, Klebsiella pneumoniae
Experimental: as §1

Kp 10031 = type: cell-based, Klebsiella pneumoniae
Experimental: as §1

Ec 25922 64X-1 (COL^R) = type: cell-based, Escherichia coli; conditions: media CA-MHB
Experimental: (§2) Briefly, stock solutions of all antibacterial agents were prepared fresh in appropriate solvents (i.e. PBS, pH 7.4, DMSO, DI, etc.). Stock concentrations for drug conjugates were made at 12.5× the highest final assay concentration. All were serially diluted 2-fold, 8 or 12 times in a 96-well PCR plate (VWR cat. no. 83007-374). Bacterial cell suspensions generated from Mueller-Hinton agar (MHA) plate cultures were prepared in 0.85% saline and adjusted to ˜0.1 OD600 nm. Next, cell suspensions were diluted 1:200 in RPMI containing 5% Luria Broth (LB) to improve bacterial growth (BD Difco, cat. no. 244620) to a concentration of ˜5×10^5 CFU (colony-forming units)/mL. Due to poor solubility in Mueller-Hinton broth media, drug conjugates were evaluated in RPMI 1640 medium (+) L-glutamine, (+) sodium bicarbonate, pH 7.4 (“RPMI B”; Gibco, cat. no. 11875-085) as has been described as a more physiologically-relevant media for susceptibility testing of antibacterial compounds (1). For the conjugates, 92 μL of each cell suspension in RPMI B were added in the same 96-well plate assay format. […] Compounds were tested against a 14-strain panel comprised of E. coli (Ec), A. baumannii (Ab), P. aeruginosa (Pa), and K. pneumoniae (Kp) that were obtained from ATCC (Ec 25922, Ec 2489, Ab 19606, Pa 27853, Pa PAO1, Kp 43816, Kp 10031), Centers for Disease Control and Prevention (Ec AR0349), BEI Resources (Ab AB5075), Micromyx LLC (Ab 8990, Kp 6951), and Belgian Coordinated Collections of Microorganisms (Pa LES431) or generated in-house (Ec 25922 64X-1). […] E. coli strain ATCC 25922 and P. aeruginosa strain LES431 were run in the presence and absence of 50% heat-inactivated fetal bovine serum (FBS; Sigma, cat. no. F4135-100 mL). Plates were mixed by shaking then incubated at 35° C. overnight (16-20 h).

Ec AR0349 (mcr-1, COL^R) = type: cell-based, Escherichia coli; conditions: media CA-MHB
Experimental: as §2

E. coli ATCC 25922 = type: cell-based
Experimental: (§3) Overnight stationary-phase cultures were centrifuged at 3,500×g for 10 min at room temperature and resuspended in 1×PBS to an optical density at 600 nm (OD600) of 0.4 (1×10^8 colony forming units [CFU]/ml) in RPMI with L-glutamine and phenol red (Life Technologies). Bacteria were diluted 1:25 in RPMI ([…]) and 10 ul added to wells of a non-binding 96-well plate (Corning 3641) containing 80 ul of 50% hirudin anti-coagulated blood (complement active) in RPMI. […] MBC was defined as the minimum conjugate concentration required for bacterial clearance (Table 8A and Table 8B). An untreated growth control (40% blood, 0 ug/ml conjugate) was included in all assays as a growth comparator.
(§4) MBC was defined as the minimum compound concentration required for complete bacterial clearance (Table 18).
(§5) In most cases, 2-4 fold improvements in antibacterial activity for the conjugates are observed in the presence of complement active human blood.

A. baumannii AB5075 = type: cell-based
Experimental: as §3, §4, §5

P. aeruginosa PAO1 = type: cell-based
Experimental: as §3, §4, §5

[1] = system: Ab AB58705 (COL^R) IpxD, mut. (no LPS); type: cell-based, Acinetobacter baumannii; conditions: media CA-MHB
Pa 27853 = type: cell-based, Pseudomonas aeruginosa
Experimental: as §1

Pa LES431 = type: cell-based, Pseudomonas aeruginosa
Experimental: as §1

Pa PAO1 = type: cell-based, Pseudomonas aeruginosa; conditions: for MIC: PAO1
Experimental: as §1

Ec 25922 = type: cell-based, Escherichia coli
Experimental: as §1

Ec 2469 = type: cell-based, Escherichia coli
Experimental: as §1

Sa RN = type: cell-based
Ab 19606 (COLhet^R) = type: cell-based, Acinetobacter baumannii; conditions: media CA-MHB
Experimental: as §2

Ab AB5075 = type: cell-based, Acinetobacter baumannii
Experimental: as §1

Ab 8990 (COL^R) = type: cell-based, Acinetobacter baumannii
Experimental: as §1

E. coli 25922 = conditions: 0.3 mg/kg IP qd at T+1 hour; 72 hours after bacterial challenge; N=3
Experimental: In vivo screening of selected compounds was accomplished in an E. coli bacteremia model (N=3). Efficacy was assessed in an animal model of infection using CD-1 mice by evaluating bacteremia in immune competent mice challenged with 2× the LD95 of E. coli 25922 (dosed qd, intraperitoneally (IP) at T+1 hour, survival endpoint).
Colistin (COL) and Int-17 were dosed at 0.3 mg/kg and Int-41 was dosed at 3.0 mg/kg. Percent survival was determined 72 hours after bacterial challenge. Compounds with MICs against E. coli 25922 of less than 4 μg/ml were evaluated in the bacteremia model.
Int-115 and Int-118 were evaluated for potency in a lethal model of bacteremia. […] Test articles were dissolved in 1× PBS and injected IV at a dose volume of 10 ml/kg one hour following bacterial challenge. Animals were monitored twice daily and mortality scored over three days.
CD-1 mice were used for bacteremia, C57BL/6J mice for endotoxemia. The endpoint was survival after three days for both models.

C#CCOCCOCCOCCOCCNC(=O)CN(CC(=O)N[C@@H](CCCC)C(=O)N[C@@H](CCN)C(=O)N[C@H](C(=O)NNC(=O)N[C@H]1CCNC(=O)[C@H]([C@@H](C)O)NC(=O)[C@H](CCN)NC(=O)[C@H](CCN)NC(=O)[C@H](CC(C)C)NC(=O)[C@@H](CC2CCCCC2)NC(=O)[C@H](CCN)NC1=O)[C@H](O)CCCCCC)CC(=O)N[C@@H](CCCC)C(=O)N[C@@H](CCN)C(=O)N[C@H](C(=O)NNC(=O)N[C@H]1CCNC(=O)[C@H]([C@@H](C)O)NC(=O)[C@H](CCN)NC(=O)[C@H](CCN)NC(=O)[C@H](CC(C)C)NC(=O)[C@@H](CC2CCCCC2)NC(=O)[C@H](CCN)NC1=O)[C@H](O)CCCCCC [Int-117] (I: [Nle][Dab][X1][azaGly][Dab][Dab][dCha]L[Dab][Dab]T / II: [Nle][Dab][X1][azaGly][Dab][Dab][dCha]L[Dab][Dab]T; lactam I:5-I:C, II:5-II:C; linker I:N-II:N via X4) showed an MIC (Kp 6951 (COL^R)) of 16 µg/mL (≈ 5.74 µM), an MIC (Kp 43816) of 8 µg/mL (≈ 2.87 µM) and an MIC (Kp 10031) of 8 µg/mL (≈ 2.87 µM). For the same compound, the MIC (Ec 25922 64X-1 (COL^R)) was 8 µg/mL (≈ 2.87 µM), the MIC (Ec AR0349 (mcr-1, COL^R)) was 8 µg/mL (≈ 2.87 µM) and the “MBC in blood EC 25922” value (E. coli ATCC 25922) was >0.2 µg/mL. For the same compound, the “MBC in blood AB 5075” value (A. baumannii AB5075) was >0.2 µg/mL, the “MBC in blood PA 01” value (P. aeruginosa PAO1) was >0.2 µg/mL and the MIC [1] was 8 µg/mL (≈ 2.87 µM). It also gave an MIC (Pa 27853) of 8 µg/mL (≈ 2.87 µM), an MIC (Pa LES431) of 4 µg/mL (≈ 1.43 µM) and an MIC (Pa PAO1) of 16 µg/mL (≈ 5.74 µM). For the same compound, the “MIC in RPMI PA 01” value (Pa PAO1; PAO1, pH 7.4) was 2.16 µg/mL (≈ 0.774 µM), the MIC (Ec 25922) was 8 µg/mL (≈ 2.87 µM) and the “MIC in RPMI EC 25922” value (Ec 25922; pH 7.4) was 1.08 µg/mL (≈ 0.387 µM). For the same compound, the MIC (Ec 2469) was 8 µg/mL (≈ 2.87 µM), the MIC (Sa RN) was 16 µg/mL (≈ 5.74 µM) and the MIC (Ab 19606 (COLhet^R)) was 8 µg/mL (≈ 2.87 µM). For the same compound, the MIC (Ab AB5075) was 8 µg/mL (≈ 2.87 µM), the “MIC in RPMI AB 5075” value (Ab AB5075; pH 7.4) was 1.08 µg/mL (≈ 0.387 µM) and the MIC (Ab 8990 (COL^R)) was 8 µg/mL (≈ 2.87 µM).

In the case of C#CCOCCOCCOCCOCCC(=O)N[C@@H](CCCCCC)C(=O)N[C@@H](CCN)C(=O)N[C@H](C(=O)N[C@@H](CCN)C(=O)N[C@H]1CCNC(=O)[C@H]([C@@H](C)O)NC(=O)[C@H](CCN)NC(=O)[C@H](CCN)NC(=O)[C@H](CC(C)C)NC(=O)[C@@H](Cc2ccccc2)NC(=O)[C@H](CCN)NC1=O)[C@@H](C)O [Int-17] ({Propargyl(OCH2CH2)4CO}-[Aoc(2)][Dab]T[Dab][Dab][Dab][dF]L[Dab][Dab]T; lactam 5-C), the MIC (Kp 6951 (COL^R)) is reported as >128 µg/mL, the MIC (Kp 43816) is reported as 1 µg/mL (≈ 0.691 µM) and the MIC (Kp 10031) is reported as 1 µg/mL (≈ 0.691 µM). For the same compound, the MIC (Ec 25922 64X-1 (COL^R)) was 64 µg/mL (≈ 44.2 µM), the MIC (Ec AR0349 (mcr-1, COL^R)) was 16 µg/mL (≈ 11.1 µM) and the MIC (Pa 27853) was 2 µg/mL (≈ 1.38 µM). For the same compound, the MIC (Pa LES431) was 1 µg/mL (≈ 0.691 µM), the MIC (Pa PAO1) was 4 µg/mL (≈ 2.76 µM) and the MIC (Ec 25922) was 2 µg/mL (≈ 1.38 µM). For the same compound, the “MIC E. coli ATCC 25922, No serum” value (Ec 25922) was 2 µg/mL (≈ 1.38 µM), the “MIC E. coli ATCC 25922, Serum” value (Ec 25922) was 0.5 µg/mL (≈ 0.346 µM) and the MIC (Ec 2469) was 1 µg/mL (≈ 0.691 µM). For the same compound, the MIC (Ab 19606 (COLhet^R)) was 1 µg/mL (≈ 0.691 µM), the MIC (Ab AB5075) was 1 µg/mL (≈ 0.691 µM) and the “% Survival (IP, QD)” value (E. coli 25922) was 100%.
